From patent US10913744B2, “LRRK2 inhibitors and methods of making and using the same” (Dana-Farber Cancer Institute, Inc., priority 2015, dated 2021)
Read-outs that look alike come from different tables or passages of the source.

Experiments:
CDC2L5 = CDC2L5 (Homo sapiens (Human), UniProt Q14004); test: KinomeScan; type: binding; settings: 1 uM
From the text: The kinase selectivity of Compound 18 was further evaluated by KinomeScan.

MEKK1 = MEKK1 (Homo sapiens (Human), UniProt Q13233); test: Dundee profiling
DCAMKL1 = DCAMKL1 (Homo sapiens (Human), UniProt O15075); test: KinomeScan; type: binding; settings: 1 uM
MPSK1 = MPSK1 (Homo sapiens (Human), UniProt O75716); test: Dundee profiling
TESK1 = TESK1 (Homo sapiens (Human), UniProt Q15569); test: Dundee profiling
RSK1 = RSK1 (Homo sapiens (Human), UniProt Q15418); test: Dundee profiling
HIPK1 = HIPK1 (Homo sapiens (Human), UniProt Q86Z02); test: Dundee profiling
MKK7 = MKK7 (Homo sapiens (Human), UniProt O14733); test: KinomeScan; type: binding; settings: 1 uM
SIK3 = SIK3 (Homo sapiens (Human), UniProt Q9Y2K2); test: Dundee profiling
TAK1 = TAK1 (Homo sapiens (Human), UniProt O43318); test: Dundee profiling
EGFR (L861Q) = EGFR (L861Q) (Homo sapiens (Human), UniProt P00533, L861Q); test: KinomeScan; type: binding; settings: 1 uM
NEK2a = NEK2a (Homo sapiens (Human), UniProt P51955); test: Dundee profiling
LZK = LZK (Homo sapiens (Human), UniProt O43283); test: KinomeScan; type: binding; settings: 1 uM
JNK2 = JNK2 (Homo sapiens (Human), UniProt P45984); test: Dundee profiling
CSNK1G3 = CSNK1G3 (Homo sapiens (Human), UniProt Q9Y6M4); test: KinomeScan; type: binding; settings: 1 uM
CDK9-Cyclin T1 = CDK9-Cyclin T1 (Homo sapiens (Human), UniProt P50750); test: Dundee profiling
PAK2 = PAK2 (Homo sapiens (Human), UniProt Q13177); test: Dundee profiling
MAPKAP-K3 = MAPKAP-K3 (Homo sapiens (Human), UniProt Q16644); test: Dundee profiling
EGFR = EGFR (Homo sapiens (Human), UniProt P00533); test: KinomeScan; type: binding; settings: 1 uM
Aurora B = Aurora B (Homo sapiens (Human), UniProt Q96GD4); test: Dundee profiling
MARK4 = MARK4 (Homo sapiens (Human), UniProt Q96L34); test: Dundee profiling
VEG-FR = test: Dundee profiling
CDK8 = CDK8 (Homo sapiens (Human), UniProt P49336); test: KinomeScan; type: binding; settings: 1 uM
WNK1 = WNK1 (Homo sapiens (Human), UniProt Q9H4A3); test: KinomeScan; type: binding; settings: 1 uM
ULK2 = ULK2 (Homo sapiens (Human), UniProt Q8IYT8); test: Dundee profiling
QSK = QSK (Homo sapiens (Human), UniProt Q9Y2K2); test: KinomeScan; type: binding; settings: 1 uM
TSSK1 = TSSK1 (Homo sapiens (Human), UniProt Q9BXA7); test: Dundee profiling
HIPK3 = HIPK3 (Homo sapiens (Human), UniProt Q9H422); test: Dundee profiling
EGFR (G719C) = EGFR (G719C) (Homo sapiens (Human), UniProt P00533, G719C); test: KinomeScan; type: binding; settings: 1 uM
CDK2 = CDK2 (Homo sapiens (Human), UniProt P24941); test: KinomeScan; type: binding; settings: 1 uM
CSNK1G1 = CSNK1G1 (Homo sapiens (Human), UniProt Q9HCP0); test: KinomeScan; type: binding; settings: 1 uM
PRK2 = PRK2 (Homo sapiens (Human), UniProt Q16513); test: Dundee profiling
JNK1 = JNK1 (Homo sapiens (Human), UniProt P45983); test: Dundee profiling
EGFR (E746-A750del) = EGFR (E746-A750del) (Homo sapiens (Human), UniProt P00533, DEL746-750); test: KinomeScan; type: binding; settings: 1 uM
PDK1 = PDK1 (Homo sapiens (Human), UniProt O15530); test: Dundee profiling
[1] = read-out: percent remaining enzymatic activity, I1, 1 μM
[2] = read-out: percent remaining enzymatic activity, I10
[3] = read-out: percent remaining enzymatic activity

MPSK1, sequence (O75716 whole entry, species assumed): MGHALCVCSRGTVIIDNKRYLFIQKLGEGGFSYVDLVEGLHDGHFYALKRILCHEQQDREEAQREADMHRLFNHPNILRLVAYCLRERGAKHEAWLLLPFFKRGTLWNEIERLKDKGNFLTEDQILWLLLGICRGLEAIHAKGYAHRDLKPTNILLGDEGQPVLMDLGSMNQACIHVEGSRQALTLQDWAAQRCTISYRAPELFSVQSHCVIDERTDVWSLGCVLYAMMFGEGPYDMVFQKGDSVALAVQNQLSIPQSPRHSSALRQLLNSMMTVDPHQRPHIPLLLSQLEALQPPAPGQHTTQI
SIK3, sequence (Q9Y2K2 whole entry, species assumed): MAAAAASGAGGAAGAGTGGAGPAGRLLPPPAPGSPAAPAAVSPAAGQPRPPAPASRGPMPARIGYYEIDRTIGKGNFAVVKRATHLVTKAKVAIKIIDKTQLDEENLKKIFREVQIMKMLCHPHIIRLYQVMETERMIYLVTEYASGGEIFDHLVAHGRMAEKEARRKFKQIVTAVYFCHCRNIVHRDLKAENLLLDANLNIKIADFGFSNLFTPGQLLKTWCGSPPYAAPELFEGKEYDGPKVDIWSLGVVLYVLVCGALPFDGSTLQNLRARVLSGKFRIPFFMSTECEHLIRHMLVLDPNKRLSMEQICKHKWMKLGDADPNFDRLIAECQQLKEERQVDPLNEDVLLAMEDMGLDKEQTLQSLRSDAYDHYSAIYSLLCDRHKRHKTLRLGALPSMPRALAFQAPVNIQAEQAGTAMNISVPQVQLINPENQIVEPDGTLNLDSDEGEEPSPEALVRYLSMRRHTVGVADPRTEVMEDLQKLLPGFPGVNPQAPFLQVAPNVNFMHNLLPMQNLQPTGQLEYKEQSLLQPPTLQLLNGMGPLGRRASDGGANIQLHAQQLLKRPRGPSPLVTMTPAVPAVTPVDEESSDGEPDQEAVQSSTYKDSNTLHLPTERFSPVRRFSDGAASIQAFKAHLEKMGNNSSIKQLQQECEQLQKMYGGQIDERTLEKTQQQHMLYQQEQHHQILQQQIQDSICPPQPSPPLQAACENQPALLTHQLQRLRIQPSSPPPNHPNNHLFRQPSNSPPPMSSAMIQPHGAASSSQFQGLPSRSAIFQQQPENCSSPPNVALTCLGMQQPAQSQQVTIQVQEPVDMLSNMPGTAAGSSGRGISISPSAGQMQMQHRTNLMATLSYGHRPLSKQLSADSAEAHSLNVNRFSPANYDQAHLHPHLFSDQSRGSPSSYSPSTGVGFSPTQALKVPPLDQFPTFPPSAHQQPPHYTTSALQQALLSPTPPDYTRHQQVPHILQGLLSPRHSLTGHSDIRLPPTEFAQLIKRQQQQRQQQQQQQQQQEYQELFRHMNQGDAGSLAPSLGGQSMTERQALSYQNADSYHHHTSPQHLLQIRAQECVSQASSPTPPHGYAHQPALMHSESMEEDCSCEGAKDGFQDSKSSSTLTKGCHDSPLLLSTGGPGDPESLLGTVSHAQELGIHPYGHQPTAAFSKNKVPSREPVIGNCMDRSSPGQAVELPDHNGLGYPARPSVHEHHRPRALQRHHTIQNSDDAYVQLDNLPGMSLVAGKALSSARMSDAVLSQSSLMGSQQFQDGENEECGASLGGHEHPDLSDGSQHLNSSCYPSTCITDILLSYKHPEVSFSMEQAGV
JNK1, sequence (P45983 whole entry, species assumed): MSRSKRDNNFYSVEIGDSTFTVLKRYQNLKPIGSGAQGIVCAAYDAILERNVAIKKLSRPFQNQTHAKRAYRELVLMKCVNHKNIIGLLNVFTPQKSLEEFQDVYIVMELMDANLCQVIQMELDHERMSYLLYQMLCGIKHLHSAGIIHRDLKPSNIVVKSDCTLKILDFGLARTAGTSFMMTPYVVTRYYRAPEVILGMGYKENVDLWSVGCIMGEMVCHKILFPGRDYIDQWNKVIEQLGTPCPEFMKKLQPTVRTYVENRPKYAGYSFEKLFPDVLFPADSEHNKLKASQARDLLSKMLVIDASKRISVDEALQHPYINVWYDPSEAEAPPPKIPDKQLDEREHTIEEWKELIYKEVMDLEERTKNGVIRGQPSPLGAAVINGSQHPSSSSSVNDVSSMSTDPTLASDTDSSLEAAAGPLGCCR
RSK1, sequence (Q15418 whole entry, species assumed): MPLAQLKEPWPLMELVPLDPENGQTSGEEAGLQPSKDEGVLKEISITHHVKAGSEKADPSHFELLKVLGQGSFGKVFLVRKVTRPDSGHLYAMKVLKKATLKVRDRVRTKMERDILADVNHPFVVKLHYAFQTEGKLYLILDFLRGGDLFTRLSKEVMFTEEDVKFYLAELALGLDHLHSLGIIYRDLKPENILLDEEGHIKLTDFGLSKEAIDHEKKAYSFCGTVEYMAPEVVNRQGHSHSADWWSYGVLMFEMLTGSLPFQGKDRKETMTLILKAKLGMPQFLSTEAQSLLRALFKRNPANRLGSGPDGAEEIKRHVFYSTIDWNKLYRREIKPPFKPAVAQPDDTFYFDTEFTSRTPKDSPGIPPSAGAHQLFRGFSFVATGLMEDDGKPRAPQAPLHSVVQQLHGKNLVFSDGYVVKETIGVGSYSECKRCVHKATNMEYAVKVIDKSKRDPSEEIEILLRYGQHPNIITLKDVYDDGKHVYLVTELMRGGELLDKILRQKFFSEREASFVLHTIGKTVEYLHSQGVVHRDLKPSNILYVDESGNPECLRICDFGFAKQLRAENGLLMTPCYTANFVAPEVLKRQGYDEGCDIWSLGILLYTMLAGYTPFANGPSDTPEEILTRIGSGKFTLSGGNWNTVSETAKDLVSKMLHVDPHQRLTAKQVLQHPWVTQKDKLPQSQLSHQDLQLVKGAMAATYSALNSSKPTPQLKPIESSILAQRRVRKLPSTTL
ULK2, sequence (Q8IYT8 whole entry, looked up, species assumed): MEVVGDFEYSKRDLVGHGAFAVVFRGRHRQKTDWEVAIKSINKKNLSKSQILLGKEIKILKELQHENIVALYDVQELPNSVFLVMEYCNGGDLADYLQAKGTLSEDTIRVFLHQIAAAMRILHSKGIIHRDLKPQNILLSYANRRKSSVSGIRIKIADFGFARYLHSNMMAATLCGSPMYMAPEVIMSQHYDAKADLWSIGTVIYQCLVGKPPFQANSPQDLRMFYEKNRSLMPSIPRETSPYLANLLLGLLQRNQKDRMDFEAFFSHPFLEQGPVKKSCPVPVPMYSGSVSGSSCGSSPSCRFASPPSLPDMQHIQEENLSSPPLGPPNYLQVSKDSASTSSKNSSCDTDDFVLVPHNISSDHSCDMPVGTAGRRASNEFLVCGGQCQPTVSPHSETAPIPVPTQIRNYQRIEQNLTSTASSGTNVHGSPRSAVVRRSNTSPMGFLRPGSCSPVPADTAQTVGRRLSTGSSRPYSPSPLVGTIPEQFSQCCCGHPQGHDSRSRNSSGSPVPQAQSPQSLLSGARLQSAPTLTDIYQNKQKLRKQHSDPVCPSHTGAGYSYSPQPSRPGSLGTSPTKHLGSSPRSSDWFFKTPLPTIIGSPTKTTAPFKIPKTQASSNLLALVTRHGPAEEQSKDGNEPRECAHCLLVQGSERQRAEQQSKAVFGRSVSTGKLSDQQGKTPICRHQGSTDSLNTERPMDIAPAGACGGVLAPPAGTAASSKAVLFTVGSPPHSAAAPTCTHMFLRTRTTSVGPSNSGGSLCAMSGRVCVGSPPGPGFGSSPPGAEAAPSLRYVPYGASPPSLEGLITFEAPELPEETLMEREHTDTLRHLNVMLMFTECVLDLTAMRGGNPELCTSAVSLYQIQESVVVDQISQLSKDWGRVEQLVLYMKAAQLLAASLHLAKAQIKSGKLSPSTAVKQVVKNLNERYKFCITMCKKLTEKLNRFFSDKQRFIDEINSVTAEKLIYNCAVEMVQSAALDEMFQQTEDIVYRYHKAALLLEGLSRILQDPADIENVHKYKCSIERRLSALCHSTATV
TSSK1, sequence (Q9BXA7 whole entry, species assumed): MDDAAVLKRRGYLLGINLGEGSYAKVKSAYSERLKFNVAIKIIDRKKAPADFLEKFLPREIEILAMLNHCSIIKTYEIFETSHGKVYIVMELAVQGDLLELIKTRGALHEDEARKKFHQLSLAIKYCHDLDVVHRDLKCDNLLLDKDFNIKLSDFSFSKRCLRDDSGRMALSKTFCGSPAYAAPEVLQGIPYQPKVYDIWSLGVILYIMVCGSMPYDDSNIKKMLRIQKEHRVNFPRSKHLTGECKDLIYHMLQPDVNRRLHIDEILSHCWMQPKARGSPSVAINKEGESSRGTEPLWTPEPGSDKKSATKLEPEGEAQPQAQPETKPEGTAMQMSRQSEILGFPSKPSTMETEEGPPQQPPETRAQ
MAPKAP-K3, sequence (Q16644 whole entry, species assumed): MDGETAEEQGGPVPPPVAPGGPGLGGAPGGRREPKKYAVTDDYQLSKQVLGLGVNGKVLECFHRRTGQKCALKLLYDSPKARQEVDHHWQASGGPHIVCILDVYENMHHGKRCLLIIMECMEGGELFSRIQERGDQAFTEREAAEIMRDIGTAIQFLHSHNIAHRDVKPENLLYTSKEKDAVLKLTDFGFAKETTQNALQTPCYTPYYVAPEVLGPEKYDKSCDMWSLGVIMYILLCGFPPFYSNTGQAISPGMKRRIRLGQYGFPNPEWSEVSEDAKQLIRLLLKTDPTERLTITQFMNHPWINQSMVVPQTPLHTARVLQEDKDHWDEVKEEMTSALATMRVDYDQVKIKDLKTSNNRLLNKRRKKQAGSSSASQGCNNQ
NEK2a, sequence (P51955 whole entry, species assumed): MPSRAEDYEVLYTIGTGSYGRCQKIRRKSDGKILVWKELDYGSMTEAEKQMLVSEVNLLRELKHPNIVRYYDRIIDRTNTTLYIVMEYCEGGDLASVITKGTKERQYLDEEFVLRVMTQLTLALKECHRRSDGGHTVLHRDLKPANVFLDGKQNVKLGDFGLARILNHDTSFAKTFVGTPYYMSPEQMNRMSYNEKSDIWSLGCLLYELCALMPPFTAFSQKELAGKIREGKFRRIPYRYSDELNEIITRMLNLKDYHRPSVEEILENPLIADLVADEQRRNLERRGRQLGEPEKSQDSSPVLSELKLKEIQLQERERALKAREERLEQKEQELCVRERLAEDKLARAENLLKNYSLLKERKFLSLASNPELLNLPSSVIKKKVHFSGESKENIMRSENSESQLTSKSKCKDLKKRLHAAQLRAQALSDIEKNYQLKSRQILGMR

Compound CNc1nc(Nc2ccc(C(=O)N3CCOCC3)cc2OC)nc2[nH]cc(Cl)c12 [Compound 18, (4-((5-chloro-4-(methylamino)-7H-pyrrolo[2,3-d]pyrimidin-2-yl)amino)-3-methoxyphenyl)(morpholino)methanone] has a KinomeScan value (CDC2L5) of 100, a remaining activity at 1 µM (MEKK1; [1]) of 94% and a remaining activity at 1 µM (MEKK1; [2]) of 85%. For the same compound, the KinomeScan value (DCAMKL1) was 74, the remaining activity at 1 µM (MPSK1; [1]) was 113% and the remaining activity at 1 µM (MPSK1; [2]) was 106%. The remaining activity at 1 µM (TESK1; [1]) was 97%, the remaining activity at 1 µM (TESK1; [2]) was 95% and the remaining activity at 1 µM (RSK1; [1]) was 96%. The remaining activity at 1 µM (RSK1; [2]) was 60%, the remaining activity at 1 µM (HIPK1; [1]) was 95% and the remaining activity at 1 µM (HIPK1; [2]) was 44%. The KinomeScan value (MKK7) was 100, the “percent remaining enzymatic activity” value (SIK3; I10) was 96% and the remaining activity at 1 µM (SIK3; [3]) was 107%. The remaining activity at 1 µM (TAK1; [1]) was 96%, the remaining activity at 1 µM (TAK1; [2]) was 42% and the KinomeScan value (EGFR (L861Q)) was 57. The remaining activity at 1 µM (NEK2a; [1]) was 97%, the remaining activity at 1 µM (NEK2a; [2]) was 103% and the KinomeScan value (LZK) was 92. For the same compound, the “percent remaining enzymatic activity” value (JNK2; I10) was 4%, the remaining activity at 1 µM (JNK2; [3]) was 27% and the KinomeScan value (CSNK1G3) was 100. For the same compound, the remaining activity at 1 µM (CDK9-Cyclin T1; [1]) was 105%, the remaining activity at 1 µM (CDK9-Cyclin T1; [2]) was 91% and the remaining activity at 1 µM (PAK2; [1]) was 110%. It also gave a remaining activity at 1 µM (PAK2; [2]) of 102%, a remaining activity at 1 µM (MAPKAP-K3; [1]) of 97% and a remaining activity at 1 µM (MAPKAP-K3; [2]) of 84%. The KinomeScan value (EGFR) was 93, the remaining activity at 1 µM (Aurora B; [1]) was 97% and the remaining activity at 1 µM (Aurora B; [2]) was 90%. The “percent remaining enzymatic activity” value (MARK4; I10) was 98%, the remaining activity at 1 µM (MARK4; [3]) was 109% and the “percent remaining enzymatic activity” value (VEG-FR; I1, 1 μM) was 104%. The “percent remaining enzymatic activity” value (VEG-FR; I10) was 100%, the KinomeScan value (CDK8) was 74 and the KinomeScan value (WNK1) was 95. For the same compound, the remaining activity at 1 µM (ULK2; [1]) was 110%, the remaining activity at 1 µM (ULK2; [2]) was 95% and the KinomeScan value (QSK) was 86. It also gave a remaining activity at 1 µM (TSSK1; [1]) of 14%, a remaining activity at 1 µM (TSSK1; [2]) of 7% and a remaining activity at 1 µM (HIPK3; [1]) of 106%. The remaining activity at 1 µM (HIPK3; [2]) was 93%, the KinomeScan value (EGFR (G719C)) was 91 and the KinomeScan value (CDK2) was 95. The KinomeScan value (CSNK1G1) was 97, the remaining activity at 1 µM (PRK2; [1]) was 103% and the remaining activity at 1 µM (PRK2; [2]) was 93%. For the same compound, the “percent remaining enzymatic activity” value (JNK1; I10) was 6%, the remaining activity at 1 µM (JNK1; [3]) was 38% and the KinomeScan value (EGFR (E746-A750del)) was 100. The remaining activity at 1 µM (PDK1; [1]) was 91% and the remaining activity at 1 µM (PDK1; [2]) was 88%.
